# Measured values as given in paper PMC10017709, “Structural basis of selective cannabinoid CB2 receptor activation” (Nature Communications, 2023).
# “And” between values parts separate entries of the source, which are not always exact repeats. Equal values may be shown once.
# Legend:
# [1] = system: CB1R activity; experiment: Mouse tetrad assay for CB1R activity; settings: in vivo, po, 25 mg/kg
# Procedure: To determine whether LEI-102 maintained its selectivity for CB2R over CB1R in vivo, LEI-102 was tested in the mouse tetrad assay for CB1R activity. In this assay, four consecutive behavioral tests, related to anti-nociception, hypothermia, catalepsy, and spontaneous activity, were performed 120 min after administration of the agonist. […] There were no effects on nociceptive behavior assessed in tail withdrawal test nor on body temperature (Fig. 6 upper row). No effect was found on locomotor behavior (Fig. 6 lower row) in case of distance traveled, time spent mobile, or running speed of mice.
# The well-established model of cisplatin-induced nephropathy was used[63]. Mice (CB2R^−/− and CB2R^+/+) were sacrificed 72 h after a single injection of cisplatin (cis-diamine platinum (II) dichloride (Sigma#P4394) 25 mg/kg i.p.; freshly dissolved in physiological saline) by cervical dislocation under deep anesthesia with 5% isoflurane, for collection of blood and tissue samples. LEI-102 was given i.p. or by oral gavage (p.o.) at 0.3, 3.0, and 10 mg/kg every day, starting 1.5 h before the cisplatin exposure. The drug was dissolved in a vehicle of DMSO:Tween 80:saline, 1:1:18. After administration of LEI‐102, mice were killed by cervical dislocation under deep anesthesia with 5% isoflurane, for collection of blood and tissue samples at the time described in the figure. The tetrad assay in mice has previously been described in detail.
# [2] = target: CB2R-I110^3.29A (Homo sapiens, UniProt P34972, I110A); experiment: [35S]GTPγS assay, CB2R I110A mutant; type: biochemical; settings: for [35S]GTPγS binding: I1103.29A, individual replicates
# [3] = target: CB2R-S285^7.39A (Homo sapiens, UniProt P34972, S285A); experiment: [35S]GTPγS assay, CB2R S285A mutant; type: biochemical; settings: S285A mutant
# [4] = target: T1, hCB2R (Homo sapiens, UniProt P34972); experiment: [3H]RO6957022 displacement assay; type: binding; settings: for percentage specific [3H]RO6957022 binding (displacement): individual replicates
# T1 construct: host or cells: CHO-K1 (CHOK1_hCB2bgal, PathHunter), membranes
# [5] = target: CB2R-L185^ECL2H (Homo sapiens, UniProt P34972, L185H); experiment: [3H]CP55,940 displacement assay, CB2R L185H mutant; type: binding; settings: read-out: pKi (converted)
# [6] = target: CB2R-H95^2.65A (Homo sapiens, UniProt P34972, H95A); experiment: [35S]GTPγS assay, CB2R H95A mutant; type: biochemical; settings: H95A mutant
# [7] = target: CB2R-V261^6.51L (Homo sapiens, UniProt P34972, V261L); experiment: [35S]GTPγS assay, CB2R V261L mutant; type: biochemical; settings: for [35S]GTPγS binding: V2616.51L, individual replicates
# [8] = target: CB2R WT (Homo sapiens, UniProt P34972); experiment: [3H]CP55,940 displacement assay, CB2R WT; type: binding; settings: for percentage specific [3H]CP55,940 binding: CB2R - WT, individual replicates
# [9] = target: CB2R-E181^ECL2D (Homo sapiens, UniProt P34972, E181D); experiment: [35S]GTPγS assay, CB2R E181D mutant; type: biochemical; settings: E181D mutant
# [10] = target: CB2R-L182^ECL2I (Homo sapiens, UniProt P34972, L182I); experiment: [35S]GTPγS assay, CB2R L182I mutant; type: biochemical; settings: L182I mutant
# [11] = target: T2, CB1R D266ECL2E (Homo sapiens, UniProt P21554, D266E); experiment: [3H]CP55,940 displacement assay, CB1R D266E mutant; type: binding
# T2 construct: The WT CB1R and CB2R genes were subcloned into vector pcDNA3.1; HA signal peptide (N); expressed in transfected cells; host or cells: HEK293T (transient, membrane homogenates)
# [12] = I110A mutant, HEK293T membranes
# [13] = V261L mutant, <5 when curve fit not finished
# Sequence of CB2R-H95^2.65A (P34972 whole entry H95A): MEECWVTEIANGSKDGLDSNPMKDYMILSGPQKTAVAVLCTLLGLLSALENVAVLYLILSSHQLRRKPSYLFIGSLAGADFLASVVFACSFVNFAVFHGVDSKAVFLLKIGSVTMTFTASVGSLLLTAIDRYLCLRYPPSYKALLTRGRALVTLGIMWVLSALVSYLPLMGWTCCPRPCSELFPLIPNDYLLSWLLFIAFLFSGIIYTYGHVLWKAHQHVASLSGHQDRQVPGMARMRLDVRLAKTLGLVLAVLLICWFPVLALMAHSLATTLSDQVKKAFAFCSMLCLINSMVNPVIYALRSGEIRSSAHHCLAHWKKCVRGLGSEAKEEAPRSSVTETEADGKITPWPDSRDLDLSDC
# Sequence of CB2R-V261^6.51L (P34972 whole entry V261L): as the sequence (P34972 whole entry H95A) above, with A95H, V261L counted along it
# Sequence of CB2R-I110^3.29A (P34972 whole entry I110A): as the sequence (P34972 whole entry H95A) above, with A95H, I110A counted along it
# Sequence of CB2R-S285^7.39A (P34972 whole entry S285A): as the sequence (P34972 whole entry H95A) above, with A95H, S285A counted along it
# T2 sequence (P21554 whole entry D266E): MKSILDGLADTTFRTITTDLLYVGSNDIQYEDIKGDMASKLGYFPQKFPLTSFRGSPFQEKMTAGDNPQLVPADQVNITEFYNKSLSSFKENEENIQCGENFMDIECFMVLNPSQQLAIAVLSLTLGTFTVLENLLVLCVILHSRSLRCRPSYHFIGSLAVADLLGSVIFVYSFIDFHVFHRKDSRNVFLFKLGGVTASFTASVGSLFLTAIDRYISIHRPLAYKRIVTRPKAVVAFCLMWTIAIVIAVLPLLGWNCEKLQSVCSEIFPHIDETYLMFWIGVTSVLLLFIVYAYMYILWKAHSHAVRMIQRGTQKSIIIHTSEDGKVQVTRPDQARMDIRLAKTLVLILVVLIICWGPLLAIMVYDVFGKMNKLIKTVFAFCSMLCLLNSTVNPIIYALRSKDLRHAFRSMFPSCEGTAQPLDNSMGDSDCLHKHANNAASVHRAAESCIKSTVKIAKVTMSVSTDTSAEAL
# Sequence of CB2R WT (P34972 whole entry): as the sequence (P34972 whole entry H95A) above, with A95H counted along it
# T1 sequence (P34972 whole entry): as the sequence (P34972 whole entry H95A) above, with A95H counted along it
# Sequence of CB2R-E181^ECL2D (P34972 whole entry E181D): as the sequence (P34972 whole entry H95A) above, with A95H, E181D counted along it
# Sequence of CB2R-L182^ECL2I (P34972 whole entry L182I): as the sequence (P34972 whole entry H95A) above, with A95H, L182I counted along it
# Sequence of CB2R-L185^ECL2H (P34972 whole entry L185H): as the sequence (P34972 whole entry H95A) above, with A95H, L185H counted along it
compound,measurement,setting,value
"CC(C)CN1C(=O)CN(Cc2ccc(-c3ccc(F)c(CNC4CCOCC4)n3)cc2)C1=O [LEI-102, 1-(4-(5-fluoro-6-(((tetrahydro-2H-pyran-4-yl)amino)methyl)pyridin-2-yl)benzyl)-3-isobutylimidazolidine-2,4-dione]",catalepsy,[1],Nor was catalepsy observed
same,effects in the tetrad assay as compared with vehicle,[1],did not produce any effects
same,Tail withdrawal (%MPE),[1]; 120 min,30.0 %MPE
same,EC50,[2]; [12],100 nM
same,pEC50,[2]; [12],no significant effect
same,Emax (%),"[2]; I110A mutant, at 10 µM compared to WT",36 ± 13%
same,[35S]GTPγS binding,[2]; log [ligand] (M) -5,61.30 percentage of WT and 18.20 percentage of WT and 29.13 percentage of WT
same,[35S]GTPγS binding,[2]; log [ligand] (M) -6,35.42 percentage of WT and 6.50 percentage of WT and 8.34 percentage of WT
same,[35S]GTPγS binding,[2]; log [ligand] (M) -7,35.70 percentage of WT and -4.40 percentage of WT and 26.26 percentage of WT
same,[35S]GTPγS binding,[2]; log [ligand] (M) -8,11.80 percentage of WT and -18.30 percentage of WT and 10.49 percentage of WT
same,[35S]GTPγS binding,[2]; log [ligand] (M) -9,-6.30 percentage of WT and 0.70 percentage of WT and 0.20 percentage of WT
same,[35S]GTPγS binding,[2]; log [ligand] (M) -10,15.50 percentage of WT and -9.30 percentage of WT and 14.53 percentage of WT
same,EC50,[3]; HEK293T membranes,501 nM
same,pEC50,[3]; HEK293T membranes,no significant effect
same,Emax (%),[3]; at 10 µM compared to WT,45 ± 8%
same,Ki,"[4]; CHOK1_hCB2bgal membranes, 10 °C",9.7 nM
same,percentage specific [3H]RO6957022 binding (displacement),[4]; log [agonist] (M) -5,-32.33% and 4.32% and 0.17%
same,percentage specific [3H]RO6957022 binding (displacement),[4]; log [agonist] (M) -6,-14.04% and 1.26% and 2.78%
same,percentage specific [3H]RO6957022 binding (displacement),[4]; log [agonist] (M) -7,18.14% and 30.43% and 22.20%
same,percentage specific [3H]RO6957022 binding (displacement),[4]; log [agonist] (M) -8,86.67% and 64.68% and 56.33%
same,percentage specific [3H]RO6957022 binding (displacement),[4]; log [agonist] (M) -9,136.04% and 85.34% and 92.04%
same,percentage specific [3H]RO6957022 binding (displacement),[4]; log [agonist] (M) -10,150.08% and 77.03% and 85.93%
same,Ki,[5],50.1 nM
same,EC50,[6]; <5 when curve fit not finished,> 10000 nM
same,pEC50,[6]; <5 when curve fit not finished,significantly reduced
same,Emax (%),[6]; at 10 µM compared to WT,64 ± 7%
same,EC50,[7]; [13],398 nM
same,pEC50,[7]; [13],no significant effect
same,Emax (%),"[7]; V261L mutant, at 10 µM compared to WT",8 ± 4%
same,[35S]GTPγS binding,[7]; log [ligand] (M) -5,10.29 percentage of WT and 13.28 percentage of WT and -0.20 percentage of WT
same,[35S]GTPγS binding,[7]; log [ligand] (M) -6,38.11 percentage of WT and 3.14 percentage of WT and 6.06 percentage of WT
same,[35S]GTPγS binding,[7]; log [ligand] (M) -7,1.50 percentage of WT and -10.33 percentage of WT and -12.90 percentage of WT
same,[35S]GTPγS binding,[7]; log [ligand] (M) -8,-5.39 percentage of WT and -14.91 percentage of WT and -5.93 percentage of WT
same,[35S]GTPγS binding,[7]; log [ligand] (M) -9,-6.94 percentage of WT and -6.08 percentage of WT and -10.10 percentage of WT
same,[35S]GTPγS binding,[7]; log [ligand] (M) -10,6.99 percentage of WT and -5.10 percentage of WT and -20.01 percentage of WT
same,"percentage specific [3H]CP55,940 binding",[8]; log [ligand] (M) -5,11.20% and 5.48% and 13.91%
same,"percentage specific [3H]CP55,940 binding",[8]; log [ligand] (M) -6,40.37% and 13.48% and 13.16%
same,"percentage specific [3H]CP55,940 binding",[8]; log [ligand] (M) -7,87.52% and 46.85% and 48.46%
same,"percentage specific [3H]CP55,940 binding",[8]; log [ligand] (M) -8,156.63% and 87.43% and 104.52%
same,"percentage specific [3H]CP55,940 binding",[8]; log [ligand] (M) -9,143.94% and 83.15% and 100.75%
same,"percentage specific [3H]CP55,940 binding",[8]; log [ligand] (M) -10,162.62% and 107.24% and 130.29%
same,Ki,[8]; read-out: pKi (converted),31.6 nM
same,EC50,[9]; <5 when curve fit not finished,126 nM
same,Emax (%),[9]; at 10 µM compared to WT,28 ± 13%
same,EC50,[10]; <5 when curve fit not finished,39.8 nM
same,Emax (%),[10]; at 10 µM compared to WT,11 ± 8%
same,"Displacement (%) of [3H]CP55,940","[11]; CB1R D266E, 10 µM compound",38 ± 10%
same,"percentage specific [3H]CP55,940 binding","[11]; CB1R D266ECL2E, 10 µM ligand, replicates 1-3",65.03 percentage and 44.89 percentage and 77.53 percentage
